Reference: PubChem BioAssay AID248 (DTP/NCI, 2004)
Several values for one entry are separate records, joined by “and”; a condition that tells them apart may be missing. Equal entries are not always repeated. Toxic doses and inconclusive results are not listed. Cut-off read from the data, not from the text of the source: active = T/C of 150% or more; inactive = T/C below 125%.

System: L1210 leukemia ip in BDF1 mice, survival T/C
Assay: NCI In Vivo Anticancer Drug Screen. Data for tumor model L1210 Leukemia (intraperitoneal) in B6D2F1 (BDF1) mice
Details: endpoint: mean survival time, higher = longer survival
Outline: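 Transplanted-tumor mice were given test agent; controls received vehicle only. Survival readings from the two groups were divided (treated over control).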

[1] = dose: 100.0 mg/kg/injection, schedule: Q01DX001 (ip), vehicle: saline
[2] = dose: 100.0 mg/kg/injection, schedule: Q04DX003 (ip), vehicle: saline
[3] = dose: 200.0 mg/kg/injection, schedule: Q01DX001 (ip), vehicle: saline
[4] = dose: 200.0 mg/kg/injection, schedule: Q04DX003 (ip), vehicle: saline
[5] = dose: 400.0 mg/kg/injection, schedule: Q01DX001 (ip), vehicle: saline
[6] = dose: 100.0 mg/kg/injection, schedule: Q04DX002 (ip), vehicle: Klucel (hydroxypropylcellulose) (HPC)
[7] = dose: 200.0 mg/kg/injection, schedule: Q04DX002 (ip), vehicle: Klucel (hydroxypropylcellulose) (HPC)
[8] = dose: 400.0 mg/kg/injection, schedule: Q04DX002 (ip), vehicle: Klucel (hydroxypropylcellulose) (HPC)
[9] = dose: 100.0 mg/kg/injection, schedule: Q04DX003 (ip), vehicle: Klucel (hydroxypropylcellulose) (HPC)
[10] = dose: 200.0 mg/kg/injection, schedule: Q04DX003 (ip), vehicle: Klucel (hydroxypropylcellulose) (HPC)
[11] = dose: 400.0 mg/kg/injection, schedule: Q04DX003 (ip), vehicle: Klucel (hydroxypropylcellulose) (HPC)
[12] = dose: 100.0 mg/kg/injection, schedule: Q01DX009 (ip), vehicle: saline with Tween-80
[13] = dose: 200.0 mg/kg/injection, schedule: Q01DX009 (ip), vehicle: saline with Tween-80
[14] = dose: 100.0 mg/kg/injection, schedule: Q01DX009 (ip), vehicle: Klucel (hydroxypropylcellulose) (HPC)
[15] = dose: 200.0 mg/kg/injection, schedule: Q01DX009 (ip), vehicle: Klucel (hydroxypropylcellulose) (HPC)
[16] = dose: 400.0 mg/kg/injection, schedule: Q01DX009 (ip), vehicle: Klucel (hydroxypropylcellulose) (HPC)

Measured: T/C

Nc1ccccn1
inactive: dose: 12.5 mg/kg/injection, schedule: Q04DX002 (ip), vehicle: saline 100 % of control | dose: 25.0 mg/kg/injection, schedule: Q04DX002 (ip), vehicle: saline 89 % of control

Cn1cccc(C#N)c1=O (tested in a mixture with another compound)
inactive: [1] 103 % of control and 113 % of control | dose: 100.0 mg/kg/injection, schedule: Q04DX002 (ip), vehicle: saline 97 % of control and 110 % of control | [2] 97 % of control | [3] 106 % of control and 108 % of control | dose: 200.0 mg/kg/injection, schedule: Q04DX002 (ip), vehicle: saline 98 % of control and 113 % of control | [4] 103 % of control and 106 % of control | [5] 103 % of control and 105 % of control | dose: 400.0 mg/kg/injection, schedule: Q04DX002 (ip), vehicle: saline 100 % of control and 92 % of control | dose: 400.0 mg/kg/injection, schedule: Q04DX003 (ip), vehicle: saline 106 % of control and 91 % of control

Nc1ccccc1C1OCCO1
inactive: dose: 50.0 mg/kg/injection, schedule: Q01DX001 (ip), vehicle: carboxymethylcellulose (CMC) 95 % of control | dose: 100.0 mg/kg/injection, schedule: Q01DX001 (ip), vehicle: carboxymethylcellulose (CMC) 95 % of control | dose: 200.0 mg/kg/injection, schedule: Q01DX001 (ip), vehicle: carboxymethylcellulose (CMC) 95 % of control | dose: 400.0 mg/kg/injection, schedule: Q01DX001 (ip), vehicle: carboxymethylcellulose (CMC) 101 % of control

c1ccc(N/N=C(\C(=N\Nc2ccccc2)c2ccccc2)c2ccccc2)cc1
inactive: dose: 200.0 mg/kg/injection, schedule: Q01DX001 (ip), vehicle: Klucel (hydroxypropylcellulose) (HPC) 87 % of control | dose: 400.0 mg/kg/injection, schedule: Q01DX001 (ip), vehicle: Klucel (hydroxypropylcellulose) (HPC) 86 % of control

CC1CN1CCS(=O)(=O)CCN1CC1C (stereo not drawn)
inactive: dose: 0.3 mg/kg/injection, schedule: Q01DX015 (ip), vehicle: carboxymethylcellulose (CMC) 95 % of control | dose: 0.6 mg/kg/injection, schedule: Q01DX015 (ip), vehicle: carboxymethylcellulose (CMC) 101 % of control | dose: 1.2 mg/kg/injection, schedule: Q01DX015 (ip), vehicle: carboxymethylcellulose (CMC) 109 % of control | dose: 1.25 mg/kg/injection, schedule: Q01DX015 (ip), vehicle: carboxymethylcellulose (CMC) 101 % of control | dose: 2.5 mg/kg/injection, schedule: Q01DX015 (ip), vehicle: carboxymethylcellulose (CMC) 103 % of control and 110 % of control | dose: 3.1 mg/kg/injection, schedule: Q01DX015 (ip), vehicle: saline 102 % of control | dose: 4.6 mg/kg/injection, schedule: Q01DX015 (ip), vehicle: saline 102 % of control | dose: 5.0 mg/kg/injection, schedule: Q01DX015 (ip), vehicle: carboxymethylcellulose (CMC) 101 % of control | dose: 7.0 mg/kg/injection, schedule: Q01DX015 (ip), vehicle: saline 94 % of control | dose: 10.0 mg/kg/injection, schedule: Q01DX015 (ip), vehicle: carboxymethylcellulose (CMC) 100 % of control and 112 % of control | dose: 10.0 mg/kg/injection, schedule: Q01DX015 (ip), vehicle: saline 100 % of control | dose: 20.0 mg/kg/injection, schedule: Q01DX015 (ip), vehicle: carboxymethylcellulose (CMC) 108 % of control | dose: 40.0 mg/kg/injection, schedule: Q01DX015 (ip), vehicle: carboxymethylcellulose (CMC) 114 % of control

CC(NC(=O)c1ccccc1)C(=O)NC(CSC(c1ccccc1)c1ccccc1)C(=O)O (stereo not drawn)
inactive: dose: 25.0 mg/kg/injection, schedule: Q01DX009 (ip), vehicle: saline 102 % of control | dose: 50.0 mg/kg/injection, schedule: Q01DX009 (ip), vehicle: saline 100 % of control | dose: 100.0 mg/kg/injection, schedule: Q01DX009 (ip), vehicle: saline 93 % of control and 90 % of control | [2] 94 % of control | [4] 100 % of control

CC(C)c1ccc(/C(=N\N=C(N)N)C2CC2)cc1
inactive: dose: 15.0 mg/kg/injection, schedule: Q01DX Z (ip), vehicle: carboxymethylcellulose (CMC) 93 % of control | dose: 30.0 mg/kg/injection, schedule: Q01DX Z (ip), vehicle: carboxymethylcellulose (CMC) 95 % of control | dose: 60.0 mg/kg/injection, schedule: Q01DX Z (ip), vehicle: carboxymethylcellulose (CMC) 92 % of control and 93 % of control | dose: 120.0 mg/kg/injection, schedule: Q01DX Z (ip), vehicle: carboxymethylcellulose (CMC) 95 % of control and 96 % of control | dose: 120.0 mg/kg/injection, schedule: Q01DX Z (oral), vehicle: carboxymethylcellulose (CMC) 101 % of control | dose: 240.0 mg/kg/injection, schedule: Q01DX Z (ip), vehicle: carboxymethylcellulose (CMC) 93 % of control | dose: 240.0 mg/kg/injection, schedule: Q01DX Z (oral), vehicle: carboxymethylcellulose (CMC) 110 % of control | dose: 480.0 mg/kg/injection, schedule: Q01DX Z (oral), vehicle: carboxymethylcellulose (CMC) 102 % of control | dose: 960.0 mg/kg/injection, schedule: Q01DX Z (oral), vehicle: carboxymethylcellulose (CMC) 102 % of control

CC(=O)Oc1ccc2c(c1)C=CC1C2CCC2(C)/C(=N/NC(N)=S)CCC12 (stereo not drawn)
inactive: [6] 100 % of control | [7] 90 % of control | [8] 116 % of control

OC1c2ccccc2C=Cc2ccccc21
inactive: [9] 104 % of control | [10] 101 % of control | [11] 101 % of control

Cc1ccnc2c1ccc1ccccc12
inactive: [1] 100 % of control | [3] 98 % of control | [5] 93 % of control

C#CCC#Cc1ccccc1
inactive: [12] 89 % of control | [13] 92 % of control

CCc1ccccc1NC(=O)Nc1cc(C)ccn1
inactive: [14] 102 % of control | [6] 102 % of control | [15] 107 % of control | [7] 102 % of control | [16] 102 % of control | [8] 106 % of control

C1=CCC2OC2C1 (stereo not drawn)
inactive: dose: 100.0 mg/kg/injection, schedule: Q01DX001 (ip), vehicle: acetone 103 % of control | [14] 105 % of control | dose: 200.0 mg/kg/injection, schedule: Q01DX001 (ip), vehicle: acetone 95 % of control | [15] 103 % of control | dose: 400.0 mg/kg/injection, schedule: Q01DX001 (ip), vehicle: acetone 94 % of control

O=c1c(Br)cocc1Br
inactive: [12] 92 % of control | [13] 97 % of control | dose: 400.0 mg/kg/injection, schedule: Q01DX009 (ip), vehicle: saline with Tween-80 102 % of control

CC(=O)c1ccc2c(c1)Nc1ccccc1S2
inactive: dose: 50.0 mg/kg/injection, schedule: Q04DX003 (ip), vehicle: Klucel (hydroxypropylcellulose) (HPC) 97 % of control | [14] 104 % of control and 102 % of control | [9] 101 % of control | [15] 106 % of control and 94 % of control | [10] 102 % of control | [16] 95 % of control and 91 % of control | [11] 91 % of control

O=NN(c1ccccc1)c1ccc(N(N=O)c2ccccc2)cc1
inactive: dose: 50.0 mg/kg/injection, schedule: Q01DX009 (ip), vehicle: Klucel (hydroxypropylcellulose) (HPC) 97 % of control | [14] 96 % of control | [9] 93 % of control | [15] 100 % of control | [10] 100 % of control | [16] 96 % of control | [11] 96 % of control

COC1CCC(/C=C(\C#N)C2CCC([N+](=O)[O-])CC2)CC1 (stereo not drawn)
inactive: dose: 100.0 mg/kg/injection, schedule: Q04DX002 (ip), vehicle: saline with Tween-80 106 % of control | dose: 200.0 mg/kg/injection, schedule: Q04DX002 (ip), vehicle: saline with Tween-80 102 % of control | dose: 400.0 mg/kg/injection, schedule: Q04DX002 (ip), vehicle: saline with Tween-80 98 % of control

Cc1cc(=O)c2c(C)ccc(C)c2[nH]1
inactive: dose: 100.0 mg/kg/injection, schedule: Q01DX001 (ip), vehicle: other 95 % of control | dose: 200.0 mg/kg/injection, schedule: Q01DX001 (ip), vehicle: other 91 % of control | dose: 400.0 mg/kg/injection, schedule: Q01DX001 (ip), vehicle: other 98 % of control

CCOc1ccc(NP(=O)(Oc2c(F)c(F)c(F)c(F)c2F)N(CCCl)CCCl)cc1 (stereo not drawn)
inactive: dose: 62.5 mg/kg/injection, schedule: Q01DX001 (ip), vehicle: other 95 % of control | dose: 125.0 mg/kg/injection, schedule: Q01DX001 (ip), vehicle: other 90 % of control | dose: 250.0 mg/kg/injection, schedule: Q01DX001 (ip), vehicle: other 89 % of control | dose: 500.0 mg/kg/injection, schedule: Q01DX001 (ip), vehicle: other 87 % of control
